Source: patent US20230414700A1, “TG2 INHIBITORS FOR IMPROVING MUCOCILIARY CLEARANCE IN RESPIRATORY DISEASES” (INSERM (INSTITUT NATIONAL DE LA SANTÉ ET DE LA RECHERCHE …, priority 2020, published 2023)
“Also recorded” adds a separate entry of the source. Square brackets hold non-standard residues; d marks the D form. Peptide text beside a SMILES is read from it. * marks the point of attachment. ξ: configuration not given here. DON = [N-]=[N+]=CC(=O)CC[C@H](N)C(=O)O; Ile(3ξ) = CCC(C)[C@H](N)C(=O)O; Cbz = O=C(OCc1ccccc1)*

Tests used:
[1] = test system: ALI-regenerated hypersecretory epithelia; assay: Mucus (MUC5AC) tethering to the apical surface after extensive apical washes with PBS, immunofluorescence; format: cell-based; conditions: IL-13-induced hypersecretory bronchial epithelium reconstituted in vitro at air-liquid interface; n=2
Source text: Whole-mount images represent stacks from optical sections done through the mucus (parallel to the plane of the epithelium). epi, epithelium. Extracellular mucus was quantified after beta-tubulin staining to delineate cell apex, and expressed as sum intensities (in […]) (n=2).
(§1) Methods: The bronchial epithelium from asthmatic patients, cystic fibrosis or control subjects was reconstituted in vitro by culturing cells at the air-liquid interface. Hyper secretory differentiation was modeled by exposing control bronchial epithelial to IL-13. Expression of TG2 and MUC5AC was assessed by RT-qPCR and immunohistochemistry/immunofluorescence. Mucin modification by TG2 was evaluated by BAP incorporation and Western-blot analysis. Mucus tethering to the apical surface was studied by detecting MUC5AC after extensive apical washes with PBS. The role of TG2 was evaluated using the pharmacological inhibitor ZDON. Mucociliary clearance was evaluated by video microscopy using fluorescent microspheres.

[2] = test system: IL-13-stimulated hypersecretory epithelia; assay: Mucociliary clearance by video microscopy using fluorescent microspheres; format: cell-based; conditions: 30-second image sequence, n=2
Protocol: The final image from a 30-second image sequence (every 5 ms) is shown (ImageJ, Z Project). B: Quantification of travelled distance (ImageJ, Plugin MTrack3). Median values are shown. n=2.
as §1

What does the source list for CCC(C)[C@H](NC(=O)[C@H](CCC(N)=O)NC(=O)[C@H](CCC(=O)C=[N+]=[N-])NC(=O)OCc1ccccc1)C(=O)N[C@H](C(=O)OC)C(C)C (some centres unmarked) [ZDON] (Cbz-[DON]Q[Ile(3ξ)]V-OMe)?
MUC5AC tethering to the apical surface of hypersecretory epithelia [1]: decreases MUC5AC tethering; also recorded: blocked; Mucociliary clearance (travelled distance of fluorescent microspheres) [2]: tends to ameliorate mucociliary clearance
